12 molecules from PubChem BioAssay (NCI) can be followed below.

The structures appear in SMILES notation.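 Growth conditions: 96-well plates. Treatment: test compound, 48 hours, 5 concentrations. Analysis: linear interpolation between bracketing concentrations; unreached endpoints set to highest concentration. GI50: concentration for 50% inhibition of growth. Definition used: TGI = concentration required for complete inhibition of growth.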

Common to all, as to assay: inhibition of tumour cell growth, NCI panel, 48 h
In experiment [1] the test system is KM12 colon.
The subject of experiment [2] is UACC-257 melanoma.
Experiment [3] concerns RPMI-8226 leukemia.
Experiment [4] deals with HL-60(TB) leukemia.
For experiment [5], the system named is RXF 393 renal.
In experiment [6] the test system is SF-539 CNS.
The test system of experiment [7] is SF-295 CNS.
The subject of experiment [8] is SNB-19 CNS.
The subject of experiment [9] is NCI/ADR-RES ovarian.

As to `C[N+](C)(C)C1CC([N+](C)(C)C)C2c3ccccc3C21` (stereo not given), the TGI in [1], in experiment [2], in experiment [3], in experiment [4], in experiment [5] and in experiment [6] was over 100 µM throughout. The TGI in [7] and in experiment [8] was over 100 µM in each case.
Take `Cc1[nH]c2ccccc2c1C1=NO/C(=N\O)C(c2c(C)[nH]c3ccccc23)C1` (stereo not given): the TGI in experiment [1] is over 100 µM; in [2], over 100 µM; in experiment [3], over 100 µM; in [4], 54 µM; in [5], 87.1 µM; in experiment [6], over 80.3 µM. Also, the TGI in experiment [7] and in experiment [8] was over 100 µM each time.
As for `C/C(CC(C)(C)N1CC1)=N\NC(=O)Nc1cccc2ccccc12`, the GI50 in [1] was 4.13 µM; in experiment [2] it was 4.09 µM; in experiment [3], 2.71 µM; in experiment [4], 2.04 µM; in experiment [5] it was 2.08 µM; in experiment [9], 3.67 µM. Also, the GI50 was 3.35 µM in experiment [6], 7.01 µM in experiment [7] and 5.14 µM in experiment [8]. Also, the TGI came out at 15.7 µM in [1]; 16.2 µM in [2]; 8.74 µM in experiment [3]; 5 µM in experiment [4]; 5.46 µM in experiment [5]; 22.4 µM in experiment [9]. For the same molecule, the values for the TGI in [6], in [7] and in experiment [8] were 15.7 µM, 35.5 µM and 18.1 µM, respectively.
Take `CN=C1CN=C(OP(=O)(N2CCOCC2)N2CCOCC2)c2cc(Cl)ccc2N1`: the TGI in experiment [1], in experiment [2], in experiment [3], in experiment [4], in experiment [5] and in experiment [6] was over 100 µM throughout. Further, the TGI in experiment [7] and in [8] was over 100 µM each time.
For `Brc1ccc(C=NC23CC4CC(CC(C4)C2)C3)cc1`, the TGI in [1], in [2], in experiment [3], in [4], in experiment [5] and in [6] was over 100 µM throughout. Besides, the TGI in experiment [7] and in experiment [8] was over 100 µM each time.
With `CC(=O)OC1=C2CC[C@@H]3C(CC[C@@]4(C)C3CC[C@@H]4OC(C)=O)[C@@]2(C)CC(C#N)C1=O` (stereo not given in full), the TGI in [1] is over 100 µM; in experiment [2] it was over 100 µM; in experiment [3], 46.9 µM; in experiment [4], 42.6 µM; in [5] it was over 100 µM; in experiment [6] it was over 100 µM. Moreover, the TGI in experiment [7] and in [8] was over 100 µM in each case.
For the molecule `CCC[CH2][Sn]1([CH2]CCC)[O]CC[S]1`, the GI50 in experiment [1] was 1.19 µM; in experiment [2], 0.679 µM; in experiment [3], 0.162 µM; in experiment [4], 0.268 µM; in experiment [5], 0.156 µM; in experiment [6] it was 0.736 µM. For the same molecule, the GI50 in [7] is 1.42 µM; in experiment [8], 0.446 µM. Moreover, the TGI in [1] was 3.02 µM; in experiment [2] it was 2.04 µM; in experiment [3], 0.551 µM; in [4], 1.22 µM; in experiment [5], 0.332 µM; in experiment [6], 2.03 µM. In addition, the TGI was 2.76 µM in experiment [7] and 1.6 µM in experiment [8].
Take `C/C(=C\C(C[C@](C)(O)C(O)CCC#C[Si](C)(C)C)S(=O)(=O)c1ccccc1)CC/C=C/CO[Si](C)(C)C(C)(C)C` (stereo not given in full): the TGI in [1] was 32.6 µM; in [2], 32.5 µM; in experiment [3], 31.6 µM; in [4], 33.2 µM; in experiment [5] it was 31.3 µM; in experiment [6], 37 µM. The TGI was found to be 31.1 µM in experiment [7] and 41.6 µM in experiment [8].
Consider `[Co].[O-]c1cccnc1C=Nc1ccccc1.[OH3+]`, for which the GI50 in [1] is over 100 µM; in experiment [2] it was over 100 µM; in experiment [3], over 100 µM; in experiment [4], 21.8 µM; in experiment [6], over 100 µM; in experiment [8], over 100 µM. The TGI in [1], in experiment [2], in experiment [3], in experiment [4], in experiment [6] and in experiment [8] was over 100 µM throughout.
As to `CC[O-].CC[O-].O=C([CH-]C(=O)c1ccccc1)CCCCCCC(=O)[CH-]C(=O)c1ccccc1.[Ti+4]`, the GI50 in experiment [1], in experiment [2], in experiment [3], in experiment [4], in experiment [5] and in [6] was over 100 µM each time. Besides, the GI50 in experiment [7] and in experiment [8] was over 100 µM each time. For the same molecule, the TGI in experiment [1], in experiment [2], in experiment [3], in [4], in [5] and in experiment [6] was over 100 µM throughout. Besides, the TGI in [7] and in experiment [8] was over 100 µM throughout.
With `COc1ccccc1NC(=O)C1=C(C)NC(C)=C(C(=O)Nc2ccccc2OC)C1c1ccccc1Cl`, the TGI in experiment [1], in experiment [2], in experiment [3], in [4], in experiment [6] and in [7] was over 100 µM throughout. Further, the TGI in [8] is over 100 µM.
With `O=C1NC2(CCCC2)C2CCCCC12O` (stereo not given), the TGI in experiment [1], in [2], in experiment [3], in experiment [4], in [5] and in experiment [6] was over 100 µM each time. Moreover, the TGI in experiment [7] and in experiment [8] was over 100 µM each time.
